According to patent US20070114186A1 (priority 2003, published 2007):

System: pseudomonas & other pathogens

## [Zn] [zinc]
  kills pseudomonas & other pathogens: kills pseudomonas & other pathogens
